Laboratory results: PMC11298695
≈ marks a conversion by molar mass, not a printed value. Where two headings read alike, the source gives them in different places.

What was measured:
[1] = Powder dissolution (apparent solubility) in pH 6.8 phosphate buffer and water; format: physicochemical
Protocol: A Model 1,525 system (Waters Corporation, Milford MA, United States) equipped with a photodiode array (PDA) detector (Waters 2998, Milford MA, United States) and a SunFire C18 column (4.6 mm × 250 mm, 5 μm, Waters, Ireland) was used for HPLC analysis. The column temperature was maintained at 37°C and the autosampler temperature was room temperature. The mobile phase consisted of methanol and H2O (70:30, v/v) at a flow rate of 1.0 mL/min. The detection wavelength of the UV detector was 248 nm and the injection volume of sample was 20 µL. The standard curve ranged from 10 μg/mL to 0.078125 μg/mL. […] The powders were sieved using standard sieves to control particle size within 75–150 µm. […] The filtrates were diluted to an appropriate concentration, and analyzed using HPLC.

[2] = in vivo; settings: male, dog, plasma, beagle dogs, oral, 40 mg/kg
[3] = tested on: Caco-2 cell monolayer; test: Caco-2 cell monolayer transport of DAI (AP to BL); format: in vitro ADME; settings: 120 min
Protocol: (§1) Caco-2 cells were seeded on 12-well Transwell® (Corning Costar, Lowell, MA, United States) culture plates (pore size 0.4 µm, surface area 1.12 cm^2) at 5 × 10^4 cells/mL. On the 3rd, 5th, 7th, 13th, 18th, and 21st days of culture, the transepithelial electrical resistance (TEER) value was measured using an EVOM2 transmembrane resistance meter (Millipore, United States) to evaluate the integrity of the Caco-2 cell monolayer.
(§2) After washing the Caco-2 cell monolayer twice with prewarmed Hank’s Balanced Salt Solution (HBSS), the transport experiments were performed by adding the final concentration of DAI (0.5 mL) to the apical side (AP) as the donor chamber, and adding HBSS (1.5 mL) to the basolateral side (BL) as the receiving chamber. The plate was incubated at 37°C and 200 μL of sample was collected from the BL side at 30, 45, 60, 90, and 120 min. […]
(§3) The apparent permeability coefficient (P app ) for DAI was calculated using Eq. 3 ([Ndayishimiye et al., 2022]). Papp=dQ/dt∗1/A∗C0 cm/s (3) where Q refers to the cumulative transport amount, i.e., the total drug quantity on the receiving side (μg); dQ/dt represents the transport rate of the drug through the Caco-2 cell monolayer (μg/s); A denotes the chamber membrane area (1.12 cm^2); and C0 is the initial concentration of DAI on the AP side (μg/mL).

[4] = Caco-2 cell monolayer transport of DAI (AP to BL); format: in vitro ADME; settings: human, Caco-2, DAI 50 μg/mL, read-out: apparent permeability coefficient (P app)
Protocol: as §1, §2, §3

[5] = Environmental pH of dissolution media; format: physicochemical
[6] = ref Nan et al., 2014, Panizzon et al., 2019; cited from earlier work
[7] = no reference given; cited from earlier work
[8] = in vitro; format: cell-based; settings: human, Caco-2 cells, read-out: cell viability; for viability at 24 h: Caco-2, 24 h
[9] = tested on: Caco-2 cells; test: in vitro; format: cell-based; settings: Caco-2, CCK-8
[10] = Efflux function of the Caco-2 cell model with Rhodamine 123; format: in vitro ADME; settings: human

O=c1c(-c2ccc(O)cc2)coc2cc(O)ccc12 [DAI, 4′,7-dihydroxyisoflavone]
peak time of Smax ([1]; pH 6.8 buffer): 45 min
solubility at 45 min ([1]; pH 6.8 phosphate buffer, aqueous buffer, thermodynamic from solid, pH 6.8 buffer, 37°C, powder dissolution, read-out: maximum apparent solubility (Smax)): 1.01 ± 0.06 µg/mL (≈ 3.97 µM)
time to reach Smax ([1]; water): ≤ 240 min
solubility at 240 min ([1]; water, 37 °C, water, thermodynamic from solid, read-out: maximum apparent solubility (Smax)): 0.48 ± 0.09 µg/mL (≈ 1.89 µM)
Tmax [2]: 49.8 ± 8.4 min
Cmax [2]: 210 ± 40 ng/mL
AUC ([2]; read-out: AUC0∼24): 1740 ± 150 ng·h/mL
cumulative transport of DAI [3]: 9.19 ± 0.65 µg
Papp at 120 min, 50 μg/mL [4]: 22.8 ± 1.6 ×10⁻⁶ cm/s
environmental pH ([5]; medium pH6.8 buffer): 6.74 ± 0.03
environmental pH ([5]; medium water (pH 7.0)): 3.80 ± 0.06
water solubility [6]: 0.31 µg/mL (≈ 1.22 µM)
pK a [7]: 7.43
viability at 24 h ([8]; 1st of five listed concentrations (not assigned)): 87%
viability at 24 h ([8]; 2nd of five listed concentrations (not assigned)): 88.1%
viability at 24 h ([8]; 3rd of five listed concentrations (not assigned)): 94.7%
viability at 24 h ([8]; 4th of five listed concentrations (not assigned)): 98%
viability at 24 h ([8]; 5th of five listed concentrations (not assigned)): 94%
effect on Caco-2 cells [9]: dose-dependent inhibitory effect

C1CNCCN1 [PIP, Piperazine]
viability at 24 h, 16.94 μg/mL ([8]; Caco-2, PIP 16.94 μg/mL): 85.2%

COC(=O)c1ccccc1-c1c2ccc(=N)cc-2oc2cc(N)ccc12 [Rhodamine 123]
Papp A→B at 120 min ([10]; 120 min): 0.179 ± 0.061 ×10⁻⁶ cm/s
Papp B→A at 120 min ([10]; 120 min): 0.852 ± 0.016 ×10⁻⁶ cm/s
efflux ratio at 120 min ([10]; Papp BL→AP / Papp AP→BL, read-out: Efflux ratio (ER)): 4.76
